Measurements published in article PMC11247486, “Improving the In Vivo Stability of [^52Mn]Mn(II) Complexes with 18-Membered Macrocyclic Chelators for PET Imaging” (Journal of Medicinal Chemistry, 2024).
Where two headings read alike, the source gives them in different places.

Key:
[1] = cited from earlier work; for pMn: [Mn^2+] = [L] = 10 μM at pH = 7.4
[2] = pH-potentiometric titrations, ligand protonation constants; type: physicochemical; conditions: 0.15 M NaCl, 25°C
Description: Chelator protonation constants (log Ki^H) defined by eq 1 were determined using pH-potentiometric titrations, which afforded four protonation constants for each chelator attributed to the protonation of the amine N atoms (Table 2, and standard deviations are shown in parentheses). [drawing 1] 1 where i = 1, 2...4. The first two protonation constants adopt nearly identical values for both chelators, while the third and fourth protonation constants are much lower for CHXPYAN than for PYAN, which is consistent with the results obtained by Jackels et al.[25] The high rigidity of CHXPYAN likely forces the protonated amines to be placed at a shorter distance than in PYAN, reducing the values of log K3^H and log K4^H for the cyclohexyl derivative due to electrostatic effects. […] The structurally related 18-membered macrocycle 18-ane-N6 is characterized by a higher basicity compared with PYAN and CHXPYAN, as expected due to the increased number of amine N atoms and its higher flexibility.[43]
(§1) The protonation constants of PYAN and CHXPYAN and the stability constants of Mn(II) complexes were determined by pH-potentiometric titrations. The metal-to-ligand concentration ratio was 1:1 (the concentration of the ligand was generally 0.002 M). For the pH measurements and titrations, a Metrohm 888 Titrando titration workstation and Metrohm-6.0234.110 combined electrode was used. Equilibrium measurements were carried out at a constant ionic strength (0.15 M NaCl) in 6 mL samples at 25 °C. The solutions were stirred, and N2 was bubbled through them. The titrations were made in the pH range of 1.7–12.0. KH-phthalate (pH = 4.005) and borax (pH = 9.177) buffers were used to calibrate the pH meter. For the calculation of [H^+] from the measured pH values, the method proposed by Irving et al. was used as follows.[59] A 0.01 M HCl solution was titrated with a standardized NaOH solution at 0.15 M NaCl ionic strength. The differences (A) between the measured (pHread) and calculated pH (−log[H^+]) values were used to obtain the equilibrium H^+ concentration from the pH values measured in the titration experiments (A = 0.04). For the equilibrium calculations, the stoichiometric water ionic product (pKw) was also needed to calculate the [OH^–] values under basic conditions. The VNaOH – pHread data pairs of the HCl–NaOH titration obtained in the pH range of 10.5–12.0 were used to calculate the pKw value (pKw = 13.77). The protonation and stability constants were calculated with the PSEQUAD program.[60]

[3] = Transmetalation (dissociation) kinetics of the Mn(II) complexes with Cu2+; type: physicochemical; conditions: 0.15 M NaCl, 25 °C
Description: There is a wide consensus among the coordination chemistry community that kinetic inertness is more important for the safe use of metal complexes for imaging applications than thermodynamic stability.[8],[49],[50] Thus, we conducted a detailed investigation of the transmetalation kinetics of the Mn-PYAN and Mn-CHXPYAN complexes, by following their exchange reactions with Cu^2+ in the pH range of 2.5–4.5 (eq 3). [drawing 3] 3
All reactions were carried out in the presence of a large excess of Cu^2+ in order to guarantee the pseudo-first-order kinetic conditions. The transmetalation of Mn-PYAN in the pH range ∼2.0–4.5 is very fast, and thus the rates of the reactions were measured using the stopped-flow technique. Conversely, the exchange reactions of the Mn-CHXPYAN complex are slow and could be studied by using conventional methods. The transmetalation reactions of Mn-PYAN and Mn-CHXPYAN were monitored by following the formation of the corresponding Cu(II) complexes at 295 nm.
The kd values increase upon increase in [H^+] and are independent of the concentration of Cu^2+ as it was found for Mn-PCTA, Mn-PC3AM, and Mn-bispidine complexes.[49],[51] […] The increase in the kd values with increasing H^+ concentration can be interpreted in terms of the extremely slow spontaneous (k0, eq 4) and the proton-assisted (k*[Mn(HL), eq 6) dissociation of Mn(II) complexes. The saturation behavior of the plots of kd versus [H^+] (Figure 5) is characteristic for the equilibrium formation and the accumulation of the *[Mn(HL)] intermediate characterized by the *KH protonation constant (eq 5). The analysis of the rate constants obtained for Mn-CHXPYAN indicates a second-order dependence of kd on [H^+], which can be explained by the proton-assisted dissociation of the *[Mn(HL)] intermediate (k^H*[Mn(HL)], eq 7). [drawing 4] 4 [drawing 5] 5 [drawing 6] 6 [drawing 7] 7
In the presence of excess of the exchanging ion, the transmetalation can be treated as a pseudo-first-order process, and the rate of reactions can be expressed with eq 8, where kd is a pseudo-first-order rate constant and [MnL]t is the total concentration of the complex. [drawing 8] 8
Through consideration of all the possible pathways, the rate of the transmetalation of Mn-PYAN and Mn-CHXPYAN with Cu^2+ can be expressed by eq 9 [drawing 9] 9 Considering the total concentration of the Mn(II) complex ([MnL]t = [MnL] + [*Mn(HL)], as well as the equation defining the protonation constant for the formation of the *[Mn(HL)] intermediate (eq 5) and eq 8, the pseudo-first-order rate constant can be expressed as follows [drawing 10] 10 where k1 = k*[Mn(HL)] × *KH and k2 = k^H*[Mn(HL)] × *KH. The rate and protonation constants characterizing the transmetalation of Mn-PYAN and Mn-CHXPYAN with Cu^2+ have been calculated by fitting the kd values presented in Figure 5 to eq 10 and the values obtained are compared with the corresponding values of Mn-DOTA, Mn-DO3A, Mn-PCTA, Mn-PC3AM^H, and Mn-bispidine in Table 3.
Rates of the metal exchange reactions of Mn-PYAN and Mn-CHXPYAN with Cu^2+ were measured by spectrophotometry by following the formation of the related Cu(II) complexes at 295 nm with an Applied Photophysics DX-17MV stopped-flow instrument and PerkinElmer Lambda 365 UV–vis spectrophotometer using 1.0 cm cells, respectively. The concentration of Mn-PYAN and Mn-CHXPYAN was 1.0 × 10^–4 M, whereas the concentration of Cu^2+ was 10 and 20 times higher in order to guarantee pseudo-first-order conditions. The temperature was maintained at 25 °C and the ionic strength of the solutions was kept constant with 0.15 M NaCl. The exchange rates were studied in the pH range of ca. 2.0–4.5. To keep the pH values constant, monochloroacetic acid (pH range 2.0–3.3), 1,4-dimethylpiperazine (pH range 3.3–4.1), and N-methylpiperazine (pH range 4.1–4.5) buffers were used (0.01 M). […]

[4] = pH-potentiometric titrations, stability constants of the Mn(II) complexes; type: physicochemical; conditions: 0.15 M NaCl, 25°C
Description: The stability constants of the Mn(II) complexes with PYAN and CHXPYAN defined by eq 2 were also determined through pH-potentiometric titrations. [drawing 2] 2
as §1

[5] = cited from earlier work
[6] = cited from earlier work; remark: listed apart in the source
[7] = Ex vivo biodistribution after PET/CT; type: in vivo, mice
Description: [^52Mn]Mn-CHXPYAN and [^52Mn]Mn-PYAN radiocomplexes were evaluated in vivo through 90 min dynamic PET/CT imaging of heathy mice followed by an ex vivo biodistribution analysis. Similarly, [^52Mn]MnCl2 was also studied as a control.
[^52Mn]Mn-CHXPYAN and [^52Mn]Mn-PYAN were synthesized with molar specific activities of 80 and 60 MBq/μmol, respectively. 1.04 ± 0.07 MBq (28 ± 2 μCi) of the radiocomplexes in 100 μL injection doses was prepared. The mice (n = 4 per group) were anesthetized with 2.5% isoflurane in oxygen and were injected via the retroorbital sinus. For comparison purposes, 1.04 ± 0.07 MBq (28 ± 2 μCi) of [^52Mn]MnCl2, pH 7 was also injected. After injection, mice were imaged on a Sofie GNEXT PET/CT scanner for a 90 min dynamic scan (9 frames of 10 min each) followed by a 3 min CT at 80 kVp for anatomical reference. PET images were reconstructed via 3D-OSEM (Ordered Subset Expectation Maximization) algorithm (24 subsets and 3 iterations), with random, attenuation, and decay correction, and CT was reconstructed with the modified Feldkamp algorithm and analyzed using VivoQuant 4.0 (Invicro Imaging Service and Software, Boston MA) software. After imaging, mice were euthanized, and organs were collected, weighed, and counted for associated radioactivity on an automated gamma counter. Radioactivity uptake was calculated as the percent injected dose per gram of tissue (% ID/g). Following the reconstruction of the images, ROIs (heart, liver, kidneys, muscle, and bone) were hand-drawn to determine the SUVs using the VivoQuant imaging software.

[8] = mice; cited from earlier work
[9] = Mn(II) complex, 0.15 M NaCl, 25 °C
[10] = healthy mice, 1.5 h postinjection, mean ± SD, n = 4
[11] = Mn(II) complex, 0.1 M Me4NCl, 25 °C

Compound: c1cc2nc(c1)CN[C@@H]1CCCC[C@H]1NCc1cccc(n1)CN[C@@H]1CCCC[C@H]1NC2 [CHXPYAN, (4^1R,4^2R,10^1R,10^2R)-3,5,9,11-tetraaza-1,7(2,6)-dipyridina-4,10(1,2)-dicyclohexanacyclododecaphane]
- log KMnL ([1]; 0.2 M KNO3): ~13
- log K1^H [2]: 9.16(2)
- log K2^H [2]: 8.27(2)
- log K3^H [2]: 4.55(2)
- log K4^H [2]: 2.54(3)
- k1 ([3]; Mn(II) complex of the chelator): 0.23 ± 0.03 M^–1 s^–1
- k2 ([3]; Mn(II) complex of the chelator): (6.4 ± 0.8) × 10^3 M^–2 s^–1
- kd at pH = 7.4 ([3]; Mn(II) complex of the chelator): 9.0 × 10^–9 s^–1
- log*KH ([3]; protonation constant of the *[Mn(HL)] intermediate): 3.33 (5)
- pMn ([4]; pMn = −log[Mn]free when [Mn^2+] = [L] = 10 μM at pH = 7.4): 7.41
- log KMnL ([4]; stability constant of the Mn(II) complex): 12.51(3)
- log K1^H ([5]; 0.2 M KNO3): 9.25
- log K2^H ([5]; 0.2 M KNO3): 8.57
- log K3^H ([5]; 0.2 M KNO3): 4.75
- log K4^H ([5]; 0.2 M KNO3): 4.03

Compound: C1CNCCNCCNCCNCCNCCN1 [18-ane-N6, 1,4,7,10,13,16-Hexa-Azacyclo-Octadecane, reference compound]
- log KMnL ([1]; 0.2 M NaClO4, 25°C): 10.5
- pMn ([1]; 0.2 M NaClO4): 5.05
- log K1^H ([5]; 0.2 M NaClO4, 25°C): 10.19
- log K2^H ([5]; 0.2 M NaClO4, 25°C): 9.23
- log K3^H ([5]; 0.2 M NaClO4, 25°C): 8.73
- log K4^H ([5]; 0.2 M NaClO4, 25°C): 4.09
- log K5^H ([5]; 0.2 M NaClO4, 25°C): 2
- log K6^H ([5]; 0.2 M NaClO4, 25°C): <1

Compound: NC(=O)CN1CCN(CC(N)=O)Cc2cccc(n2)CN(CC(N)=O)CC1 [PC3AM^H]
- k1 [6, 9]: 1.7 × 10^–2 M^–1 s^–1
- kd at pH = 7.4 [6, 9]: 4.3 × 10^–10 s^–1

Compound: [52Mn+2].[Cl-].[Cl-] [[^52Mn]MnCl2, reference compound]
- Biodistribution, Blood [7, 10]: 0.60 ± 0.11 % ID/g
- Biodistribution, Brain [7, 10]: 0.54 ± 0.26 % ID/g
- Biodistribution, Fat [7, 10]: 1.12 ± 0.53 % ID/g
- Biodistribution, Femur [7, 10]: 2.42 ± 0.36 % ID/g
- Biodistribution, Heart [7, 10]: 12.14 ± 7.31 % ID/g
- Biodistribution, Kidney [7, 10]: 38.14 ± 6.06 % ID/g
- Biodistribution, Liver [7, 10]: 13.00 ± 6.07 % ID/g
- Biodistribution, Muscle [7, 10]: 0.25 ± 0.13 % ID/g
- Biodistribution, Skin [7, 10]: 0.31 ± 0.11 % ID/g
- Biodistribution, Spleen [7, 10]: 4.83 ± 2.04 % ID/g
- Biodistribution, Stomach [7, 10]: 4.78 ± 3.02 % ID/g
- Biodistribution, L. Intestine ([7]; mouse, in vivo, 1.5 h): 6.48 ± 1.56 % ID/g
- Biodistribution, S. Intestine ([7]; mouse, in vivo, 1.5 h): 14.23 ± 5.70 % ID/g
- uptake, heart [8]: 16.01 ± 0.1 % ID/g
- uptake, kidney [8]: 29.9 ± 9.6 % ID/g
- uptake, liver [8]: 9.6 ± 1.9 % ID/g
- uptake, pancreas [8]: 4.1 ± 1.1 % ID/g
- uptake, spleen [8]: 4.2 ± 0.6 % ID/g

Compound: O=C(O)CN1CCNCCN(CC(=O)O)CCN(CC(=O)O)CC1 [DO3A^3–, 1,4,7,10-tetraazacyclododecane-1,4,7-triacetate]
- k1 [6, 9]: 0.45 M^–1 s^–1
- k2 [6, 9]: 3.2 × 10^2 M^–2 s^–1
- kd at pH = 7.4 [6, 9]: 1.8 × 10^–8 s^–1

Compound: O=C([O-])CN(CCN(CC(=O)[O-])CC(=O)[O-])CCN(CC(=O)[O-])CC(=O)[O-].[Mn+2] [Mn-DTPA]
- time at which complex dissociation in the presence of Cu^2+ is complete (dead time of the stopped-flow technique) [6]: ≤ 2 ms

Compound: O=C(O)CN(CCN(CC(=O)O)CC(=O)O)CCN(CC(=O)O)CC(=O)O [DTPA^5–, diethylenetriamine-N,N,N′,N″,N″-pentaacetate, reference compound]
- log KMnL ([1]; 0.15 M NaCl, 25°C): 14.54
- pMn ([1]; 0.15 M NaCl): 7.95
- log K1^H ([5]; 0.15 M NaCl, 25°C): 9.97
- log K2^H ([5]; 0.15 M NaCl, 25°C): 8.40
- log K3^H ([5]; 0.15 M NaCl, 25°C): 4.18
- log K4^H ([5]; 0.15 M NaCl, 25°C): 2.68
- log K5^H ([5]; 0.15 M NaCl, 25°C): 2.01
- log K6^H ([5]; 0.15 M NaCl, 25°C): 1.36

Compound: O=C(O)CN1CCN(CC(=O)O)CCN(CC(=O)O)CCN(CC(=O)O)CC1 [DOTA^4–, 1,4,7,10-tetraazacyclododecane-1,4,7,10-tetraacetate]
- k0 ([6]; Mn(II) complex of the chelator, 0.1 M Me4NCl, 25 °C): 1.8 × 10^–7 s^–1
- kd at pH = 7.4 ([6]; Mn(II) complex, 0.1 M Me4NCl, 25 °C, calculated using a Zn^2+ concentration of 10^–5 M): 1.8 × 10^–7 ^a s^–1
- k1 [6, 11]: 4.0 × 10^–2 M^–1 s^–1
- k2 [6, 11]: 1.6 × 10^3 M^–2 s^–1
- k3^Zn [6, 11]: 1.5 × 10^–5 M^–1 s^–1
- log*KH [6, 11]: 4.26
